How the values were obtained:
[1] = target: B. suis histidinol dehydrogenase (Brucella suis biovar 1, UniProt Q8G2R2); assay: biochemical; assay type: biochemical
B. suis = assay: microbe, parasite or virus in culture; assay type: cell-based, Brucella suis
[2] = test system: B. suis in the macrophage; assay type: cell-based, Brucella suis
[3] = Brucella suis, 168 h, read-out: Effects on the growth of B. suis (%) (inhibition of bacterial growth)

B. suis histidinol dehydrogenase, sequence (Q8G2R2 whole entry, looked up): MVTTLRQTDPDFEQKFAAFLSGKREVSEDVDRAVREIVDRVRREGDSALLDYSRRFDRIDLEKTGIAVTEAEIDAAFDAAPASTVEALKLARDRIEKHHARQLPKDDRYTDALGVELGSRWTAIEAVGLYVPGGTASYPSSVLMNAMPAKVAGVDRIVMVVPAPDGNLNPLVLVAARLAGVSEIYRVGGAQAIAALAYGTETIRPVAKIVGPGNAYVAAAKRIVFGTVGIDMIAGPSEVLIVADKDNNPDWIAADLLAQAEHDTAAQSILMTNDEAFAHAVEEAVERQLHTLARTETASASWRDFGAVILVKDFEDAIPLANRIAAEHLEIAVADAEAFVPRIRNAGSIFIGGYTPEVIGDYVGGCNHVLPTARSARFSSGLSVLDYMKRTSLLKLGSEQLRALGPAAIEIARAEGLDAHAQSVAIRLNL

## N[C@@H](Cc1c[nH]cn1)C(=O)Cc1ccc(C#Cc2ccccc2)cc1 [Compound 3a, (3S)-3-amino-4-(1H-imidazol-4-yl)-1-[4-(phenylethynyl)phenyl] butan-2-one dihydrochlorhydrate]
[1]
  Affinity for HDH: significant affinity
  IC50: 3 nM
B. suis
  Inhibition of the growth of the bacteria in liquid medium: completely inhibit
B. suis; [3]
  inhibition at 50 µM: 100%
  inhibition at 100 µM: 100%
[2]
  Inhibition of the intracellular proliferation of the bacteria in the macrophage: approximately 1000 times

Source: patent US8372871B2, “Histidinol dehydrogenase inhibitors, and use thereof as medicaments” (priority 2008, dated 2013)
